These results are taken from patent publication US20110117154A1, “USE OF RIFALAZIL TO TREAT COLONIC DISORDERS” (ACTIVBIOTICS PHARMA, LLC, priority 2008, published 2011).

This assay relates to C. difficile. In words: CDAD treatment in hamsters infected with C. difficile. The assay is classed as in vivo. The settings on record: for survival of hamsters infected with C. difficile: treated at the time of infection. The protocol:
Optimal dosages and formulations of Rifalazil alone, or in combination with a second drug compound, can be determined using standard animal models known in the art. One example of an animal model for C. difficile associated disease is the Golden Syrian hamster. To determine the optimal dosage regimen of Rifalazil, Golden Syrian hamsters are injected subcutaneously with clindamycin phosphate (10 mg/kg) followed, 24 hours later, by oral gavage with 10^5 colony forming units (CFU) of C. difficile. Antibiotic treatment is then administered orally, either simultaneously or 24 hours after C. difficile administration Animals are monitored for survival, weight variations, identification of C. difficile toxins in cecal content, and histologic damage to ceca as compared to animals treated with a prophylactic protocol using standard methods known in the art (see, for example, Anton P. M. et al., Abstract ID No. 102471, Publishing ID No. T1741, presented at the American Gastroenterological Association Meeting, May 17-22, 2003; Anton P. M. et al., Gastroenterology 124:A558, 2003).
Hamsters were infected with C. difficile, and at the time of infection, were also treated with vancomycin (50 mg/kg) or Rifalazil (2 mg/kg).

[1] abbreviates: microgranulated formulation, systemic administration, relatively high doses (FIG. 1).

`CO[C@H]1/C=C/O[C@@]2(C)Oc3c(C)c(O)c4c(=O)c(c5oc6cc(N7CCN(CC(C)C)CC7)cc(O)c6nc-5c4c3C2=O)NC(=O)/C(C)=C\C=C\[C@H](C)[C@H](O)[C@@H](C)[C@@H](O)[C@@H](C)[C@H](OC(C)=O)[C@@H]1C` [Rifalazil, 3′-hydroxy-5′-(4-isobutyl-1-piperazinyl) benzoxazinorifamycin]: the “survival of hamsters infected with C. difficile” value (Rifalazil 2 mg/kg) is recorded as “All animals treated with Rifalazil survived”. Under setting [1], the “relapses of CDAD in in vivo animal experiments” value is on record as “no relapses were observed” and the “treatment of CDAD in in vivo animal experiments” value is listed as “effectively treated”.
Take `CN[C@H](CC(C)C)C(=O)N[C@H]1C(=O)N[C@@H](CC(N)=O)C(=O)N[C@H]2C(=O)N[C@H]3C(=O)N[C@H](C(=O)N[C@H](C(=O)O)c4cc(O)cc(O)c4-c4cc3ccc4O)[C@H](O)c3ccc(c(Cl)c3)Oc3cc2cc(c3O[C@@H]2O[C@H](CO)[C@@H](O)[C@H](O)[C@H]2O[C@H]2C[C@](C)(N)[C@H](O)[C@H](C)O2)Oc2ccc(cc2Cl)[C@H]1O` [vancomycin, reference compound]: the “survival of hamsters infected with C. difficile” value (vancomycin 50 mg/kg) is on record as “eventually succumbed to the infection”.
